{"source": "patent US20150044305A1", "about": "“[…] NITRIC OXIDE FOR TREATING RESPIRATORY DISEASES” (Advanced Inhalation Therapies (AIT) Ltd., priority 2012, published 2015)", "key": {"[1]": {"test": "Phase I safety study: pulmonary function tests", "type": "in vivo, human", "protocol": "(§1) After obtaining informed consent, treatment was initiated within 5 days of enrollment. Subjects were housed in a hospital ward and received 160 ppm gNO for 30 minutes every four hours (Q4 h), five times a day, for five consecutive days by inhalation. Subjects returned for follow-up evaluations 3, 7 and 21 days after the final gNO administration. Subject safety was determined by monitoring vital signs, methemoglobin levels, lung function, blood chemistry, hematology, prothrombin time, inflammatory cytokine/chemokines levels and endothelial activation.\nSubjects underwent full pulmonary function tests (PFT), including lung diffusing capacity (DLCO) by a trained technician utilizing a calibrated pulmonary function system (Jaeger MasterScreen, VIASYS Healthcare, USA) on screening and days 2, 8, 12 and 26. Spirometry test (Microloop by Micro Medical, England) was performed on days 1, 3 and 4. Effect of gNO on lung function and DLCO was determined by changes from baseline, treatment days and follow up days."}, "S. aureus (Clinical)": {"tested_on": "S. aureus (Clinical)", "details": "200 ppm gNO, saline suspension; cited from earlier work"}, "[2]": {"test": "Phase I safety study: inspiratory NO2 level during gNO administration", "type": "in vivo, human", "details": "inspired gas, 160 ppm gNO", "description": "The levels of gNO, NO2, O2 and methemoglobin were monitored during the administration of gNO. The target gas mixture was 160 ppm gNO with a nitrogen dioxide (NO2) level of less than 5 ppm and an oxygen (O2) level ranging from 21% to 25%. Inspiratory NO, NO2 and O2 levels were continuously monitored by sampling from the mouthpiece sample port located about 6 millimeters from the mouth of the subject with an AeroNOx (Pulmonox, AB, Canada) NO, NO2 and O2 electrochemical analyzer. Delivery safety was determined by the number of occasions that NO2 exceeded 5 ppm, gNO exceeding 10% variation and O2 dropping below 20% during gNO administration. A commercially available noninvasive pulse oximeter (Rad 57, Masimo Corporation, USA) was used to measure saturation levels at the periphery of methemoglobin (SpMet)."}, "inflammatory cytokines": {"tested_on": "inflammatory cytokines", "test": "Phase I safety study: plasma cytokine levels by cytokine bead array", "type": "in vivo, human", "details": "vs baseline", "protocol": "as §1\nHematological assessment included a complete blood count and differentials (hemoglobin, hematocrit, red blood cell count, white blood cell count, white blood cell differential, and platelet count) were obtained in order to monitor blood chemistry, hematology and inflammation measurements. The blood chemistry profile included serum creatinine, and liver function tests such as aspartate aminotransferase (AST) serum glutamic oxaloacetic transaminase (SGOT), alkaline phosphatase, and gamma-glutamyl transferase (GGT). The effect of gNO on coagulation was determined by the prothrombin time (PT) and its derived measures of prothrombin ratio (PR) and international normalized ratio (INR). Heparinized plasma was collected at baseline and on days 1, 2, 4, and 5 of gNO administration, and on follow-up days 3, 7 and 21 and frozen at −80° C. Plasma cytokine levels were assessed using the human inflammation cytokine bead array kit (BD Bioscience, Canada). Plasma levels of angiopoietin Ang-1 and Ang-2 were determined by ELISA (R&D Systems, USA)."}, "[3]": {"details": "intermittent gNO inhalation; cited from earlier work"}, "MRSA": {"tested_on": "MRSA", "details": "200 ppm gNO, saline suspension; cited from earlier work"}, "Klebsiella sp.#3": {"tested_on": "Klebsiella sp.#3", "details": "200 ppm gNO, saline suspension; cited from earlier work"}, "E. Coli": {"tested_on": "E. Coli", "details": "200 ppm gNO, saline suspension; cited from earlier work"}, "Enterobacter sp.": {"tested_on": "Enterobacter sp.", "details": "200 ppm gNO, saline suspension; cited from earlier work"}, "[4]": {"details": "gNO concentrations below 200 ppm, 6 hours/day for 28 days, rats; cited from earlier work"}, "Pseudomonas aeruginosa": {"tested_on": "Pseudomonas aeruginosa", "details": "inhaled, intermittent 30 minute exposures, 160 ppm gNO; cited from earlier work"}, "[5]": {"test": "Phase I open label safety study in healthy adults: adverse events and vital signs", "type": "in vivo, human", "description": "10 healthy adult volunteer subjects (5 males, 5 females), aged 20 to 62 years, were enrolled in the study after screening their medical history, a physical examination, pulmonary function tests and blood values. Exclusion criteria included individuals less than 19 years of age, pregnant females and unwilling to practice birth control during the study, diagnosed with pulmonary disease, epistaxis, hemoptysis, methemoglobinemia, organ transplant recipient or receiving antibiotic therapy.\nas §1\nSubjects were administered gNO through a modified disposable mouthpiece to maximize mixing. Inspiration was spontaneously initiated by the subject from a conventional intermittent positive pressure breathing respirator (Mark-7, Carefusion, USA) in fixed flow mode delivering 48 liters per minute (LPM). Flows of gas were verified with a calibrated mass flow meter (TSI, USA). Gaseous nitric oxide (gNO, obtained at INOmax, Ikaria, USA) at a concentration of 800 ppm delivered at a flow of 12 LPM was titrated into a distal delivery port on the mouth piece connected to the respirator during inspiratory phase only (pressure switch). The Mark 7 respirator was supplied by an air/oxygen blender (Bird Sentry, Carefusion, USA) set to deliver 26% oxygen.\nCardiovascular status was determined by monitoring heart rate, blood pressure, respiratory rate and temperature. Values were recorded prior to the start of each gNO administration, following a 5 minute rest. During treatments, vital signs (except temperature) were also performed 15 minutes after the start of the treatment and at the end of gNO administration and recorded. After the first treatment each day, vital signs were recorded at every 30 minutes until the start of the second gNO administration of the day."}, "[6]": {"tested_on": "five planktonic species of methicillin resistant S. aureous (MRSA)", "details": "exposure to 1,600 ppm hours of gNO; cited from earlier work"}, "[7]": {"details": "continuous delivery of 80 ppm gNO; cited from earlier work"}, "Klebsiella sp.#1": {"tested_on": "Klebsiella sp.#1", "details": "200 ppm gNO, saline suspension; cited from earlier work"}, "[8]": {"details": "vs baseline during the course of the study"}}}
{"smiles": "[N]=O", "note": "[gNO, nitric oxide]", "values": [{"measurement": "pulmonary function tests", "setting": "[1]; during and after gNO administration", "result": "did not reveal any abnormalities"}, {"measurement": "DLCO", "setting": "[1]; vs baseline", "result": "did not change from baseline"}, {"measurement": "forced vital capacity (FVC)", "setting": "[1]; vs baseline", "result": "did not change from baseline"}, {"measurement": "residual volume (RV)", "setting": "[1]; vs baseline", "result": "did not change from baseline"}, {"measurement": "total lung capacity (TLC)", "setting": "[1]; vs baseline", "result": "did not change from baseline"}, {"measurement": "FEV1", "setting": "[1]; [8]", "result": "did not differ from baseline"}, {"measurement": "maximum mid-expiratory flow (MMEF)", "setting": "[1]; [8]", "result": "did not differ from baseline"}, {"measurement": "LD100", "setting": "S. aureus (Clinical)", "result": 4, "unit": "h"}, {"measurement": "Latent Period", "setting": "S. aureus (Clinical)", "result": 3, "unit": "h"}, {"measurement": "−2.5 Log10 (hours)", "setting": "S. aureus (Clinical)", "result": 3.7, "unit": "hours"}, {"measurement": "highest NO2 level recorded during the treatments", "setting": "[2]", "result": 2.8, "unit": "ppm"}, {"measurement": "cytokine level of IL-1b", "setting": "inflammatory cytokines", "result": "unaffected"}, {"measurement": "cytokine level of IL-6", "setting": "inflammatory cytokines", "result": "unaffected"}, {"measurement": "cytokine level of IL-8", "setting": "inflammatory cytokines", "result": "unaffected"}, {"measurement": "cytokine level of IL-10", "setting": "inflammatory cytokines", "result": "unaffected"}, {"measurement": "cytokine level of IL-12p70", "setting": "inflammatory cytokines", "result": "unaffected"}, {"measurement": "cytokine level of TNF", "setting": "inflammatory cytokines", "result": "unaffected"}, {"measurement": "clinical symptoms of bovine respiratory disease", "setting": "[3]", "result": "shown to decrease the clinical symptoms"}, {"measurement": "LD100", "setting": "MRSA", "result": 5, "unit": "h"}, {"measurement": "Latent Period", "setting": "MRSA", "result": 3, "unit": "h"}, {"measurement": "−2.5 Log10 (hours)", "setting": "MRSA", "result": 4.2, "unit": "hours"}, {"measurement": "LD100", "setting": "Klebsiella sp.#3", "result": 6, "unit": "h"}, {"measurement": "Latent Period", "setting": "Klebsiella sp.#3", "result": 3, "unit": "h"}, {"measurement": "−2.5 Log10 (hours)", "setting": "Klebsiella sp.#3", "result": 5.1, "unit": "hours"}, {"measurement": "LD100", "setting": "E. Coli", "result": 5, "unit": "h"}, {"measurement": "Latent Period", "setting": "E. Coli", "result": 3, "unit": "h"}, {"measurement": "−2.5 Log10 (hours)", "setting": "E. Coli", "result": 4.2, "unit": "hours"}, {"measurement": "LD100", "setting": "Enterobacter sp.", "result": 6, "unit": "h"}, {"measurement": "Latent Period", "setting": "Enterobacter sp.", "result": 4, "unit": "h"}, {"measurement": "−2.5 Log10 (hours)", "setting": "Enterobacter sp.", "result": 5.3, "unit": "hours"}, {"measurement": "mortality", "setting": "[4]", "result": "No deaths occurred"}, {"measurement": "pulmonary bioburden and leukocyte infiltration", "setting": "Pseudomonas aeruginosa", "result": "effective to reduce the pulmonary bioburden and leukocyte infiltration"}, {"measurement": "minor adverse events reported", "setting": "[5]; 160 ppm gNO 30 minutes, five times a day, five days, 10 healthy adults", "result": "Three minor adverse events were reported"}, {"measurement": "tolerability and adverse events", "setting": "[5]; 160 ppm gNO 30 minutes, five times a day, five days, 10 healthy adults, 250 administrations", "result": "well tolerated and no significant adverse events were observed"}, {"measurement": "vital signs", "setting": "[5]; during and after 160 ppm gNO administration", "result": "remained within normal limits"}, {"measurement": "blood pressure", "setting": "[5]; during or after 160 ppm gNO administration", "result": "no drop in blood pressure"}, {"measurement": "population of planktonic MRSA strains", "setting": "[6]", "result": "A reduction in the population of all five MRSA planktonic strains was observed"}, {"measurement": "subjects with SpMet exceeding 7%", "setting": "[7]", "result": 35, "unit": "%"}, {"measurement": "LD100", "setting": "Klebsiella sp.#1", "result": 6, "unit": "h"}, {"measurement": "Latent Period", "setting": "Klebsiella sp.#1", "result": 3, "unit": "h"}, {"measurement": "−2.5 Log10 (hours)", "setting": "Klebsiella sp.#1", "result": 3.5, "unit": "hours"}]}
